From patent US10111874B2, “Combination therapies for treatment of cancer” (Araxes Pharma LLC, priority 2014, dated 2018)

These compounds were tested against T1, KRAS G12C 1-169, his-tagged protein, GDP-loaded (Homo sapiens, UniProt P01116, G12C) (assay: Biochemical assay: covalent binding to KRAS G12C analyzed by mass spectrometry). Details: compounds 1-47, measured at 24 h.
T1 construct: KRAS G12C 1-169, his-tagged protein, GDP-loaded
Further: test concentration or dose not given here.

T1 sequence (P01116 1-169 isoform P01116-2 G12C): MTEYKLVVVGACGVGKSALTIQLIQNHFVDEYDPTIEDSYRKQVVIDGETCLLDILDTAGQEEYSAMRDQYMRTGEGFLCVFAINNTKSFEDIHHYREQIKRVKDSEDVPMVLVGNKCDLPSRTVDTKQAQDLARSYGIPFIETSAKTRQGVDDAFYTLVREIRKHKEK

Row | Compound | Binding %
1 | C=CC(=O)N1CCN(c2ncnc3cc(Cl)c(-c4ccc(Cl)c(Cl)c4)cc23)CC1 [Compound I-7, 1-(4-(7-chloro-6-(3,4-dichlorophenyl)quinazolin-4-yl)piperazin-1-yl)prop-2-en-1-one] | ++++ (++++indicates binding activity greater than 75%)
2 | C=CC(=O)N1CCN(c2ncnc3cc(C4CC4)c(-c4ccc(C5CC5)cc4)cc23)CC1 [Compound I-41, 1-(4-(7-cyclopropyl-6-(4-cyclopropylphenyl)quinazolin-4-yl)piperazin-1-yl)prop-2-en-1-one] | + (+indicates binding activity from 5% to 25%)
3 | C=CC(=O)N1CCN(c2ncnc3cc(Cl)c(-c4ccccc4)cc23)CC1 [Compound I-18, 1-(4-(7-chloro-6-phenylquinazolin-4-yl)piperazin-1-yl)prop-2-en-1-one] | ++ (++indicates binding activity greater than 25% and up to 50%)
4 | C=CC(=O)NC1CN(C2CN(C(=O)CNc3cc(Cl)c(Cl)cc3O)C2)C1 [Example 39, N-(1′-(2-(4,5-dichloro-2-hydroxyphenylamino)acetyl)-1,3′-biazetidin-3-yl)acrylamide] | + (+indicates binding activity from 5% to 25%)
5 | C=CC(=O)N1CCN(c2ncnc3cc(Cl)c(-c4cccc(C#N)c4)cc23)CC1 [Compound I-19, 3-(4-(4-acryloylpiperazin-1-yl)-7-chloroquinazolin-6-yl)benzonitrile] | ++ (++indicates binding activity greater than 25% and up to 50%)
6 | C=CC(=O)N1CCN(c2ncnc3cc(Cl)c(-c4cc(Cl)ccc4Cl)cc23)CC1 [Compound I-9, 1-(4-(7-chloro-6-(2,5-dichlorophenyl)quinazolin-4-yl)piperazain-1-yl)prop-2-en-1-one] | +++ (+++indicates binding activity greater than 50% and up to 75%)

Same assay, conditions: compounds 48-246, measured at 2 h

Row | Compound | Binding %
7 | C=CC(=O)N1CCN(c2ncnc3cc(-c4csc5ccccc45)c(Cl)cc23)CC1 [Compound I-198, 1-(4-(7-(benzo[d]thiophen-3-yl)-6-chloroquinazolin-4-yl)piperazin-1-yl)prop-2-en-1-one] | ++++ (++++indicates binding activity greater than 75%)
8 | C=CC(=O)N1CCN(c2ncnc3cc(-c4ccc(F)cc4C(N)=O)c(Cl)cc23)CC1 [Compound I-193, 2-(4-(4-acryloylpiperazin-1-yl)-6-chloroquinazolin-7-yl)-5-fluorobenzamide] | ++ (++indicates binding activity greater than 25% and up to 50%)
9 | C=CC(=O)N1CCN(c2ncnc3cc(-c4ccccc4-c4nccs4)c(Cl)cc23)CC1 [Compound I-186, 1-(4-(6-chloro-7-(2-(thiazol-2-yl)phenyl)quinazolin-4-yl)piperazin-1-yl)prop-2-en-1-one] | +++ (+++indicates binding activity greater than 50% and up to 75%)
10 | C=CC(=O)N1CCN(c2ncnc3cc(-c4ccccc4F)c(C(F)(F)F)cc23)CC1 [Compound I-150, 1-(4-(7-(2-fluorophenyl)-6-(trifluoromethyl)quinazolin-4-yl)piperazin-1-yl)prop-2-en-1-one] | ++++ (++++indicates binding activity greater than 75%)
11 | C=CC(=O)N1CCN(c2ncnc3cc(Cl)c(-c4ccc(Cl)cc4)cc23)CC1CN(C)C (centres unmarked) [Compound I-60, 1-(4-(7-chloro-6-(4-chlorophenyl)quinazolin-4-yl)-2-((dimethylamino)methyl)piperazin-1-yl)prop-2-en-1-one] | + (+indicates binding activity from 5% to 25%)
12 | C=CC(=O)N1CCN(c2nc(C)nc3cc(-c4ccccc4)c(Cl)cc23)CC1 [Compound I-95, 1-(4-(6-chloro-2-methyl-7-phenylquinazolin-4-yl)piperazin-1-yl)prop-2-en-1-one] | ++ (++indicates binding activity greater than 25% and up to 50%)
13 | C=CC(=O)N1CCN(c2ncnc3ccccc23)CC1C#N (centres unmarked) [Compound I-57, 1-acryloyl-4-(quinazolin-4-yl)piperazine-2-carbontrile] | + (+indicates binding activity from 5% to 25%)
14 | C=CC(=O)N1CC(Nc2ncnc3cc(-c4ccccc4)c(Cl)cc23)C1 [Compound I-96, 1-(3-(6-chloro-7-phenylquinazolin-4-ylamino)azetidin-1-yl)prop-2-en-1-one] | + (+indicates binding activity from 5% to 25%)
15 | C=CC(=O)N1CCN(c2ncnc3cc(-c4ccc(Cl)cc4F)c(Cl)cc23)CC1 [Compound I-114, 1-(4-(6-chloro-7-(4-chloro-2-fluorophenyl)quinazolin-4-yl)piperazin-1-yl)prop-2-en-1-one] | +++ (+++indicates binding activity greater than 50% and up to 75%)
16 | C=CC(=O)N1CCN(c2ncnc3cc(-c4ccc(Cl)cc4)c(Cl)cc23)CC1CC#N (centres unmarked) [Compound I-110, 2-(1-acryloyl-4-(6-chloro-7-(4-chlorophenyl)quinazolin-4-yl)piperazin-2-yl)acetonitrile] | +++ (+++indicates binding activity greater than 50% and up to 75%)
17 | C=CC(=O)N1CCN(c2ncnc3cc(-c4ccccc4C(F)(F)F)c(C(F)(F)F)cc23)CC1 [Compound I-212, 1-(4-(6-(trifluoromethyl)-7-(2-(trifluoromethyl)phenyl)quinazolin-4-yl)piperazin-1-yl)prop-2-en-1-one] | ++++ (++++indicates binding activity greater than 75%)
18 | C=CC(=O)N1CCN(c2ncnc3c(F)c(-c4c(O)ccc5ccccc45)c(Cl)cc23)CC1 [Compound I-235, 1-(4-(6-chloro-8-fluoro-7-(2-hydroxynaphthalen-1-yl)quinazolin-4-yl)piperazin-1-yl)prop-2-en-1-one] | +++ (+++indicates binding activity greater than 50% and up to 75%)
19 | C=CC(=O)N1CCN(c2ncnc3c(F)c(-c4ccccc4C(F)(F)F)c(Cl)cc23)CC1CC#N (centres unmarked) [Compound I-243, 2-(1-acryloyl-4-(6-chloro-8-fluoro-7-(2-(trifluoromethyl)phenyl)quinazolin-4-yl)piperazin-2-yl)acetonitrile] | ++++ (++++indicates binding activity greater than 75%)
20 | C=CC(=O)N1CCN(c2ncnc3cc(-c4cccc(F)c4)c(Cl)cc23)CC1 [Compound I-84, 1-(4-(6-chloro-7-(3-fluorophenyl)quinazolin-4-yl)piperazin-1-yl)prop-2-en-1-one] | ++ (++indicates binding activity greater than 25% and up to 50%)
21 | C=CC(=O)N1CCN(c2ncnc3c(F)c(-c4ccccc4C(N)=O)c(Cl)cc23)CC1 [Compound I-236, 2-(4-(4-acryloylpiperazin-1-yl)-6-chloro-8-fluoroquinazolin-7-yl)benzamide] | +++ (+++indicates binding activity greater than 50% and up to 75%)
22 | CN(C)C/C=C/C(=O)N1CCN(c2ncnc3cc(-c4ccccc4)c(Cl)cc23)CC1 [Compound I-82, (E)-1-(4-(6-chloro-7-phenylquinazolin-4-yl)piperazin-1-yl)-4-(dimethylamino)but-2-en-1-one] | + (+indicates binding activity from 5% to 25%)
23 | C=CC(=O)N1CCN(c2ncnc3cc(-c4ccccc4)c(Cl)cc23)CC1C(N)=O (centres unmarked) [Compound I-104, 1-acryloyl-4-(6-chloro-7-phenylquinazolin-4-yl)piperazine-2-carboxamide] | +++ (+++indicates binding activity greater than 50% and up to 75%)
24 | C=CC(=O)N1CCN(c2ncnc3cc(-c4cc(-c5cn[nH]c5)ccc4F)c(Cl)cc23)CC1 [Compound I-188, 1-(4-(6-chloro-7-(2-fluoro-5-(1H-pyrazol-4-yl)phenyl)quinazolin-4-yl)piperazin-1-yl)prop-2-en-1-one] | +++ (+++indicates binding activity greater than 50% and up to 75%)

Same assay, conditions: compounds 247-342, measured at 30 min

Row | Compound | Binding %
25 | C=CC(=O)N1CCN(c2nc(OCCN(C)C)nc3c(F)c(-c4c(O)cccc4F)c(Cl)cc23)CC1 [Compound 341, 1-(4-(6-chloro-2-(2-(dimethylamino)ethoxy)-8-fluoro-7-(2-fluoro-6-hydroxyphenyl)quinazolin-4-yl)piperazin-1-yl)prop-2-en-1-one] | ++++ (++++indicates binding activity greater than 75%)
26 | C=CC(=O)N1CCN(c2ncnc3c(F)c(-c4c[nH]c5ccccc45)c(Cl)cc23)CC1 [Compound I-288, 1-(4-(6-chloro-8-fluoro-7-(1H-indol-3-yl)quinazolin-4-yl)piperazin-1-yl)prop-2-en-1-one] | ++ (++indicates binding activity greater than 25% and up to 50%)
27 | C=CC(=O)N1CCN(c2c(C#N)cnc3cc(-c4c(O)ccc5ccccc45)c(Cl)cc23)CC1 [Compound I-260, 4-(4-acryloylpiperazin-1-yl)-6-chloro-7-(2-hydroxynaphthalen-1-yl)quinoline-3-carbonitrile] | ++ (++indicates binding activity greater than 25% and up to 50%)

Same assay, conditions: determined at 2 hrs

Row | Compound | Binding %
28 | C=CC(=O)N1CC(N2CCN(C(=O)CNc3cc(C4CC4)c(Cl)cc3O)C[C@H]2CO)C1 [II-63, (S)-1-(3-(4-(2-(4-chloro-5-cyclopropyl-2-hydroxyphenyl-amino)acetyl)-2-(hydroxymethyl)-piperazin-1-yl)azetidin-1-yl)prop-2-en-1-one] | ++ (++indicates binding activity greater than 20%)
29 | C=CC(=O)N1CC(N2CCN(C(=O)CNc3cc(CC)c(Cl)cc3O)CC2)C1 [II-55, 1-(3-(4-(2-(4-chloro-5-ethyl-2-hydroxyphenylamino)acetyl)piperazin-1-yl)azetidin-1-yl)prop-2-en-1-one] | ++ (++indicates binding activity greater than 20%)

Same assay, conditions: determined at 24 hrs

Row | Compound | Binding %
30 | C=CC(=O)N1CC(N2CCN(C(=O)c3cc(C4CC4)c(Cl)cc3OC)CC2)C1 [II-47, 1-(3-(4-(4-chloro-5-cyclopropyl-2-methoxybenzoyl)-piperazin-1-yl)azetidin-1-yl)prop-2-en-1-one] | + (+indicates binding activity from 5% to 15%)
31 | C=CC(=O)N1CC(N2CCN(C(=O)CNc3cc(Cl)c(F)cc3O)CC2)C1 [II-14, 1-(3-(4-(2-(5-chloro-4-fluoro-2-hydroxyphenyl-amino)acetyl)piperazin-1-yl)azetidin-1-yl)prop-2-en-1-one] | +++ (+++indicates binding activity greater than 25% and up to 50%)
32 | C=CC(=O)N1CC(N2CCN(C(=O)CNc3ncc(Cl)s3)CC2)C1 [II-38, 1-(3-(4-(2-(5-chlorothiazol-2-ylamino)acetyl)piperazin-1-yl)azetidin-1-yl)prop-2-en-1-one] | + (+indicates binding activity from 5% to 15%)
